Experiments:
Format in all cases: in vivo
[1] = test system: Codling moth, Cydiapomonella—neonate larvae; experiment: Codling moth neonate larvae bioassay by diet incorporation, mortality; conditions: for LC50: Cydia pomonella, 48 h; for LC50 / LC90: mortality 2 days after treatment (D + 2), diet incorporation
Source text: Codling moth, Cydiapomonella—neonate larvae • Bioassay by diet incorporation • Mortality assessment 2 days after treatment • a.i. refers to active ingredient
(§1) LC stands for “Lethal Concentration”. LC values refer to the concentration of a chemical required to kill a certain proportion of a population of pests. The concentration of the chemical that kills 50 percent of the pests during the observation period is the LC50 value and a concentration that kills 90 percent of a population is LC90.

[2] = test system: Soybean looper, Chrysodeixis includens—3rd larval stage; experiment: Soybean looper 3rd larval stage bioassay by diet surface incorporation, mortality
Source text: Soybean looper, Chrysodeixis includens—3rd larval stage • Bioassay by diet surface incorporation • Mortality assessment 3 days after treatment • a.i. refers to active ingredient
as §1

[3] = test system: Aphids Myzus persicae—larvae; experiment: Aphid larvae on radish, boom sprayer application (IRAC no 019 adapted), mortality
Source text: Aphids Myzus persicae—larvae • Study based on IRAC no 019 methods, application method adapted • Plant: radish • Application on petri dish with larvae with a boom sprayer apparatus • Assessment of mortality 3 and 4 days after application • a.i. refers to active ingredient
(§2) LD stands for “Lethal Dose”. LD50 is the amount of an ingested substance that kills 50 percent of a test sample and […] is the lethal dose that kills 90 percent of the test sample.

[4] = test system: White flies, Trialeurodes vaporarium—larvae; experiment: White fly larvae on bean, boom sprayer application (IRAC no 015 adapted), mortality; conditions: for LD50 / LD90: boom sprayer
Source text: White flies, Trialeurodes vaporarium—larvae • Study based on IRAC no 015 methods, stage and application method adapted • Plant: bean • Application: On the petri dish with larvae with a boom sprayer apparatus • Assessment of mortality at 7, 9 and 14 days after application • a.i. refers to active ingredient
as §2

[5] = mortality 3 days after treatment (D + 3), diet surface incorporation

SMILES	LC50 [1]	LC90 [1]	LC90 [2, 5]	LD50 ([3]; D +3, radish)	LD90 ([3]; D +3, radish)	LD50 ([3]; D +4, radish)	LD90 ([3]; D +4, radish)	LD50 ([4]; D +7, bean)	LD90 ([4]; D +7, bean)	LD50 ([4]; D +9, bean)	LD90 ([4]; D +9, bean)	LD50 ([4]; D +14, bean)	LD90 ([4]; D +14, bean)	further results
CN(C)C(CSC(N)=O)CSC(N)=O [Cartap, S, S-[2-(dimethylamino)-1,3-propanediyl] dicarbamothioate, reference compound]	10.1 µg/mL	104.80 μg of a.i./ml of diet	908,897 μg of a.i./ml of diet	<18.18 g a.i./ha	36.70 g a.i./ha	<18.18 g a.i./ha	16 g a.i./ha	213.7 g a.i./ha	2.3 × 10^6 g a.i./ha	15.6 g a.i./ha	4,566.3 g a.i./ha	10.4 g a.i./ha	910.4 g a.i./ha	
CN(C)C1CSSSC1.Cl [Thiocyclam HCl, N,N-dimethyl-1,2,3-trithian-5-ylamine hydrochloride]	2.57 µg/mL	10.80 μg of a.i./ml of diet	251,759 μg of a.i./ml of diet	12.04 g a.i./ha	30.51 g a.i./ha	7.66 g a.i./ha	27.07 g a.i./ha	2.22 g a.i./ha	1,899 g a.i./ha	2.23 g a.i./ha	4,905 g a.i./ha	0.82 g a.i./ha	7,910 g a.i./ha	LC50 and LC90 compared to thiocyclam oxalate ([1]; example 1, comparison in words): significantly lower concentrations than thiocyclam oxalate; times less at LC50 compared to cartap ([1]; example 1, ratio versus cartap): approximately 4 times; times less at LC90 compared to cartap ([1]; example 1, ratio versus cartap): approximately 9 times; LC50 ([2]; 72 h, mortality 3 days after treatment (D + 3), diet surface incorporation): 8990 µg/mL; LC90 compared to cartap ([2]; example 2, comparison in words): more than three times lower; LC90 compared to thiocyclam oxalate ([2]; example 2, comparison in words): orders of magnitude smaller; times less at LC50 than cartap ([2]; example 2, ratio versus cartap): approximately 6 times; times less at LC50 than thiocyclam oxalate ([2]; example 2, ratio versus thiocyclam oxalate): approximately 20 times; LD90 compared to cartap ([4]; example 4, days 7 and 9): lower application concentration compared to cartap

— patent US11591309B2, “Manufacturing method for and insecticidal compositions comprising thiocyclam hydrochloride” (Arysta L[…] America, LLC, priority 2016, dated 2023)
